Data on 31 compounds can be found in patent publication US7943643B2, “Aryl substituted pyridines and the use thereof” (Purdue Pharma L.P., priority 2001, dated 2011).

For the assay, the target named is rBIIa/beta 1 sodium channels (Rattus norvegicus, UniProt P04775). The assay is described as follows: Electrophysiological assay, two-electrode voltage clamp in Xenopus oocytes. The format is cell-based. The conditions noted are these: apparent inhibition constant from single point inhibition data; inactivated-state voltage protocol; channels expressed in Xenopus oocytes; read-out: RBIIA/β1 Ki. The procedure:
Electrophysiological Assay:
Electrophysiological Assay was used to measure potencies of compounds of the present invention rBIIa/beta 1 sodium channels expressed in Xenopus oocytes.
Preparation of cRNA encoding cloned rat brain type IIa (rBIIa) and beta 1 (β1): cDNA clones encoding the rat brain beta 1 subunit were cloned in house using standard methods, and mRNA were prepared by standard methods. mRNA encoding rBIIa was provided by Dr. A. Golden (UC Irvine). The mRNAs were diluted and stored at −80° C. in 1 μL aliquots until injection.
Preparation of oocytes: Mature female Xenopus laevis were anaesthetized (20-40 min) using 0.15% 3-aminobenzoic acid ethyl ester (MS-222) following established procedures (Woodward, R. M., et al., Mol. Pharmacol. 41:89-103 (1992)).
Two to six ovarian lobes were surgically removed. Oocytes at developmental stages V-VI were dissected from the ovary, oocytes were still surrounded by enveloping ovarian tissues. Oocytes were defolliculated on the day of surgery by treatment with collagenase (0.5 mg/mL Sigma Type I, or Boehringer Mannheim Type A, for 0.5-1 hr). Treated oocytes were vortexed to dislodge epithelia, washed repeatedly and stored in Barth's medium containing 88 mM NaCl, 1 mM KCl, 0.41 mM CaCl2, 0.33 mM Ca(NO3)2, 0.82 mM MgSO4, 2.4 mM NaHCO3, 5 mM HEPES, pH 7.4 adjusted with 0.1 mg/mL gentamycin sulphate.
Micro-injection of oocytes: Defolliculated oocytes were micro-injected using a Nanoject injection system (Drummond Scientific Co., Broomall, Pa.). Injection pipettes were beveled to minimize clogging. Tip diameter of injection pipettes was 15-35 μm. Oocytes were microinjected with approximately 50 nL 1:10 ratio mixtures of cRNAs for rBIIa and beta 1 respectively.
Electrophysiology: Membrane current responses were recorded in frog Ringer solution containing 115 mM NaCl, 2 mM KCl, 1.8 mM CaCl2, 5 mM HEPES, pH 7.4. Electrical recordings were made using a conventional two-electrode voltage clamp (Dagan TEV-200) over periods ranging between 1-7 days following injection. The recording chamber was a simple gravity fed flow-through chamber (volume […] depending on adjustment of aspirator). Oocytes were placed in the recording chamber, impaled with electrodes and continuously perfused (5-15 mL min^−1) with frog Ringer's solution. The tested compounds were applied by bath perfusion.
Voltage protocols for evoking sodium channel currents: The standard holding potential for whole oocyte clamp was −120 mV. Standard current-voltage relationships were elicited by 40 ms depolarizing steps starting from −60 mV to +50 mV in 10 mV increments. Peak currents were measured as the maximum negative current after depolarizing voltage steps. The voltage from maximum current response was noted and used for the next voltage protocol.
The purpose was to find compounds that are state dependent modifiers of neuronal sodium channels. Preferably, the compounds have a low affinity for the rested/closed state of the channel, but a high affinity for the inactivated state. The following voltage protocol was used to measure a compounds affinity for the inactivated state. Oocytes were held at a holding potential of −120 mV. At this membrane voltage, nearly all of the channels would be in the closed state. Then a 4 second depolarization was made to the voltage where the maximum current was elicited. At the end of this depolarization, nearly all the channels would be in the inactivated state. A 10 ms hyperpolarizing step was then made in order to remove some channels from the inactivated state. A final depolarizing test pulse was used to assay the sodium current after this prolonged depolarization (see analysis below). Sodium currents were measured at this test pulse before and after the application of the tested compound. Data was acquired using pClamp 8.0 software and analyzed with clampfit software (Axon instruments). […]
For `NC(=O)c1ccc(-c2ccc3ccccc3c2)nc1` [2-(2-naphthyl)pyridine-5-carboxamide, 2-(2-Naphthyl)pyridine-5-carboxamide], the Ki was determined as 28.1 µM.

For the compound `NC(=O)c1ccnc(-c2ccc(-c3ccccc3)cc2)c1` [2-(2-phenylphenyl)pyridine-4-carboxamide, 2-(4-Phenylphenyl)pyridine-4-carboxamide], the Ki is 24.9 µM. To `NC(=O)c1ccc(-c2ccc(-c3ccccc3)cc2)nc1` [2-(2-phenylphenyl)pyridine-5-carboxamide, 2-(4-Phenylphenyl)pyridine-5-carboxamide] belongs 40.7 µM; to `COc1ccc(-c2cc(C(N)=O)ccn2)cc1` [2-(4-Methoxyphenyl)pyridine-4-carboxamide], 6.17 µM.

Take `COc1ccc(-c2ccc(C(N)=O)cn2)cc1` [2-(4-Methoxyphenyl)pyridine-5-carboxamide]: the Ki stood at 44.6 µM. In the case of `NC(=O)c1ccnc(-c2ccc(Oc3ccccc3)cc2)c1` [2-(4-Phenoxyphenyl)pyridine-4-carboxamide] it was 22.3 µM; in that of `NC(=O)c1ccc(-c2ccc(Oc3ccccc3)cc2)nc1` [2-(4-Phenoxyphenyl)pyridine-5-carboxamide], 14.6 µM. In the case of `CSc1ccc(-c2ccc(C(N)=O)cn2)cc1` [2-(4-Thiomethylphenyl)pyridine-5-carboxamide] it was 35.6 µM; in that of `NC(=O)c1ccnc(-c2ccc(OC(F)(F)F)cc2)c1` [2-(4-Trifluoromethoxyphenyl)pyridine-4-carboxamide], 24.7 µM; in that of `NC(=O)c1ccc(-c2ccc(OC(F)(F)F)cc2)nc1` [2-(4-Trifluoromethoxyphenyl)pyridine-5-carboxamide], 34.2 µM. Turning to `NC(=O)c1ccc(-c2ccc(C(F)(F)F)cc2)nc1` [2-(4-Trifluoromethylphenyl)pyridine-5-carboxamide], the Ki is 24.7 µM.

Take `CCOc1ccc(-c2cc(C(N)=O)ccn2)cc1` [2-(4-ethoxyphenyl)pyridine-4-carboxamide, 2-(4-Ethoxyphenyl)pyridine-4-carboxamide]: the Ki amounted to 14.7 µM. To `CCOc1ccc(-c2ccc(C(N)=O)cn2)cc1` [2-(4-ethoxyphenyl)pyridine-5-carboxamide, 2-(4-Ethoxyphenyl)pyridine-5-carboxamide] belongs 29.7 µM. In the case of `CC(C)c1ccc(-c2cc(C(N)=O)ccn2)cc1` [2-(4-i-Propylphenyl)pyridine-4-carboxamide] it was 39.2 µM; in that of `CCCCc1ccc(-c2cc(C(N)=O)ccn2)cc1` [2-(4-n-Butylphenyl)pyridine-4-carboxamide], 32.9 µM; in that of `CCCCc1ccc(-c2ccc(C(N)=O)cn2)cc1` [2-(4-n-Butylphenyl)pyridine-5-carboxamide], 24.5 µM. To `CC(C)(C)c1ccc(-c2cc(C(N)=O)ccn2)cc1` [2-(4-tert-Butylphenyl)pyridine-4-carboxamide] belongs 53.1 µM; to `CC(C)(C)c1ccc(-c2ccc(C(N)=O)cn2)cc1` [2-(4-tert-Butylphenyl)pyridine-5-carboxamide], 32.3 µM. For `O=C(NCCN1CCCCC1)c1ccc(-c2ccc(Oc3ccc(F)cc3)cc2)nc1` [2-[4-(4-Fluorophenoxy)phenyl]pyridine 5-carboxylic acid 2-(N-piperidinyl)ethylamide], the Ki stood at 0.95 µM. In the case of `NC(=O)c1cccnc1-c1ccc(Oc2ccc(F)cc2)cc1` [2-[4-(4-Fluorophenoxy)phenyl]pyridine-3-carboxamide] it was 13.6 µM; in that of `NC(=O)c1ccnc(-c2ccc(Oc3ccc(F)cc3)cc2)c1` [2-[4-(4-Fluorophenoxy)phenyl]pyridine-4-carboxamide], 6.91 µM; in that of `NC(=O)c1cncc(-c2ccc3ccccc3c2)c1` [5-(2-naphthyl)pyridine-3-carboxamide, 5-(2-Naphthyl)pyridine-3-carboxamide], 35.1 µM.

For the compound `COc1ccc(-c2cncc(C(N)=O)c2)cc1` [5-(4-Methoxyphenyl)pyridine-3-carboxamide], the Ki was found to be 54.4 µM. As to `NC(=O)c1cncc(-c2ccc(Oc3ccccc3)cc2)c1` [5-(4-Phenoxyphenyl)pyridine-3-carboxamide], the Ki was 5.43 µM. Regarding `CSc1ccc(-c2cncc(C(N)=O)c2)cc1` [5-(4-Thiomethylphenyl)pyridine-3-carboxamide], the Ki came out at 29 µM. In the case of `NC(=O)c1cncc(-c2ccc(OC(F)(F)F)cc2)c1` [5-(4-Trifluoromethoxyphenyl)pyridine-3-carboxamide] it was 25 µM; in that of `NC(=O)c1cncc(-c2ccc(C(F)(F)F)cc2)c1` [5-(4-Trifluoromethylphenyl)pyridine-3-carboxamide], 23 µM; in that of `CCOc1ccc(-c2cncc(C(N)=O)c2)cc1` [5-(4-ethoxyphenyl)pyridine-3-carboxamide, 5-(4-Ethoxyphenyl)pyridine-3-carboxamide], 36.2 µM. For `CCCCc1ccc(-c2cncc(C(N)=O)c2)cc1` [5-(4-n-Butylphenyl)pyridine-3-carboxamide], the Ki came to 11.1 µM. To `CC(C)(C)c1ccc(-c2cncc(C(N)=O)c2)cc1` [5-(4-tert-Butylphenyl)pyridine-3-carboxamide] belongs 18.6 µM; to `O=C(NCCN1CCCCC1)c1cncc(-c2ccc(Oc3ccc(F)cc3)cc2)c1` [5-[4-(4-fluorophenoxy)phenyl]pyridine 3-carboxylic acid 2-(N-piperidinyl)ethylamide], 0.78 µM.
